The results in this text go back to patent US20230049113A1, “METHODS OF TREATING WHSC1-OVEREXPRESSING CANCERS BY INHIBITING SETD2” (priority 2018, published 2023).

SMILES strings stand for the structures. “Also recorded” adds a separate entry of the source.

For one data set, the system named is KMS-34 cells. In words: In vitro long-term proliferation (LTP) 14-day assay, KMS-34. It counts as cell-based, human. As to conditions: FIG. 2C, comparison of enantiomers.
The next data set has as its system KMS11 TKO cells. In words: In vitro long-term proliferation (LTP) 14-day assay, KMS11 TKO. It counts as cell-based, human. The following applies: KMS11 TKO (non-translocated WHSC1 allele only), 14 days. The text has this:
In Vitro Long-Term Proliferation (LTP) Assay

A further data set concerns H3K36me3 / H3K36me2. In words: Western blot of H3K36 methyl marks in KMS-34 cells. It counts as cell-based, human. As to conditions: KMS-34, after 14 days.
In a further data set the test system is KMS11 tumors. Format: in vivo. As to the method: NOD SCID mice received 1×10^7 cells (0.1 mL cell suspension) subcutaneously in the right flank. […] The maximal treatment length was 28 days. Tumor volumes (twice weekly) and body weight (daily) were recorded throughout the experiment. On day 7 or day 28 during the studies, mice were sampled in a pre-specified fashion. Sampling included nonterminal retro-orbital bleeds and full volume blood collection via terminal cardiac puncture under CO2 anesthesia. Blood samples were processed for plasma, with K2-EDTA as anticoagulant, and PBMCs isolated. The samples were frozen at −80° C. and stored before analysis. Tumors were harvested from specified mice under RNase-free conditions and snap frozen in liquid nitrogen. Bone marrow was flushed from the femur using 1×PBS, strained over a 40 um nylon strainer, and flash frozen. Histones were extracted from tumors, bone marrow, and PBMCs as previously described.
(§1) Fluorescent-Based ELISA Assay (Fluroimmunoassay (FIA) Detection of Anti-Histone H3 Tri-Methyl K36)
Histones were prepared in coating buffer and added directly to high-binding 96 well plates. Plates were left at 4° C. overnight to allow histones to adhere. […] Plates were imaged on the Odyssey Imaging System (LI-COR Biosciences) using both 700 nm and 800 nm channels. The average of the ratio values for each test sample was calculated by dividing the 800 nm (H3K36me3) value by the 700 nm value (total H3) and used to determine the percent of H3K36me3 from vehicle.

The subject of another data set is MM.1S tumors. The data set can be described thus: MM.1S non-t(4;14) multiple myeloma xenograft. It counts as in vivo, CB17 SCID mice. As to the method:
CB17 SCID mice were inoculated subcutaneously in the right flank with MM.1S tumor cells (5×10^6) in 0.2 mL of PBS mixed with Matrigel (50:50). After 18 days, mice bearing 100 to 150 mm^3 tumors were sorted into treatment groups with mean tumor volumes of 103 mm^3 (n=10 mice per group). […] The maximal treatment length was 23 days. Tumor volumes and body weight were recorded twice weekly throughout the experiment. On day 18 or day 41 during the studies, mice were sampled in a pre-specified fashion. Sampling included nonterminal retro-orbital bleeds and full volume blood collection via terminal cardiac puncture under CO2 anesthesia. Blood samples were processed for plasma, with K2-EDTA as anticoagulant, and PBMCs isolated. The samples were frozen at −80° C. and stored before analysis. Tumors were harvested from specified mice under RNase-free conditions and snap frozen in liquid nitrogen. Bone marrow was flushed from the femur using 1×PBS, strained over a 40 um nylon strainer, and flash frozen.
as §1
Histones were prepared in coating buffer and added directly to high-binding 96 well plates. […] The average of the ratio values for each test sample was calculated by dividing the 800 nm (H3K36me3) value by the 700 nm value (total H3) and used to determine the percent of H3K36me3 from vehicle.

For data set [1] the following is noted: mouse, in vivo.
Experimental: Dose Range Finding Studies
(§2) All the procedures related to animal handling, care, and treatment in this study were performed according to the guidelines approved by the Institutional Animal Care and Use Committee of Pharmaron, Beijing, China and following the guidance of the Association for Assessment and Accreditation of Laboratory Animal Care.
(§3) Six to eight-week-old NOD SCID mice were purchased from Beijing HFK Bioscience Co., Ltd. Mice were housed in polycarbonate cages maintained at a temperature of (22+/−3° C.) and relative humidity of 40-70%. Animals had free access to sterile drinking water and irradiation sterilized dry granule food throughout the study.
Data set [2] in a line: 7-day dose range finding study in mice.
Experimental: Dose Range Finding Studies
as §2, §3

Experimental for H3K36me3 / H3K36me2: Cells were pelleted, washed with ice-cold 1×PBS, resuspended in ice-cold NP40 buffer, and incubated on ice for 30 minutes before sonication (Amplitude 30%/5 sec×1). […] Blots were imaged using the Odyssey Imaging System (LICOR Biosciences).

Regarding `CC(=O)N1CCN([C@H]2CCC[C@@H](NC(=O)c3cc4c(F)ccc(C)c4[nH]3)C2)CC1` [Cpd. No. 15, N-((1R,3S)-3-(4-acetylpiperazin-1-yl)cyclohexyl)-4-fluoro-7-methyl-1H-indole-2-carboxamide], the proliferation defects entry with KMS-34 cells is reported as “proliferation defects”. The proliferation effect entry in the data set with KMS11 TKO cells is listed as “no proliferation effects”. In addition, in the data set on H3K36me3 / H3K36me2, the H3K36me2 level entry is recorded as “unaffected; also recorded: remained unaltered” and the H3K36me3 level entry is “dose-dependent decrease; also recorded: reduced”. Further, the “effect on body weight” value with KMS11 tumors (31.25 mg/kg and 62.5 mg/kg, 28 days BID) was “minimal effects on body weight”. In addition, in the data set with KMS11 tumors (day 28, all doses), the “H3K36me3 in histones from tumor (fluorescent-based ELISA)” value is given as “complete reduction”. For the same compound, the tumor response result in the data set with KMS11 tumors (oral, 28 days, dose-dependent) is given as “robust tumor growth regression”. Besides, the “H3K36me3 in MM.1S tumor samples (fluorescent-based ELISA)” value in the data set on MM.1S tumors (BID oral dosing) is on record as “reduction; also recorded: dose dependent decrease”. For the same compound, the body weight result with MM.1S tumors (all doses, 23 continuous days BID) is “minimal body weight loss; also recorded: minimal changes in body weight”. The tolerability result in data set [1] was “very well tolerated”. Also, the body weight entry in data set [2] (62.5 and 125 mg/kg BID, 7 days, versus vehicle control) is reported as “No body weight loss”. The “H3K36me3 levels in naïve bone marrow” value in data set [2] (oral dosing, 7-day study) is on record as “substantial reduction”.
